# Measurements published in patent publication US20050026950A1, “Methods of therapeutic treatment using retinoids to achieve consistent bioavailability” (Allergan, Inc., priority 2003, published 2005).
# How the values were obtained:
# Assay type in all cases: in vivo, human
# [1] = Phase 3 studies of orally administered tazarotene for psoriasis, adverse event monitoring; conditions: Taz 4.5 mg
# Method: A series of Phase 3 studies are conducted on orally administered tazarotene for the treatment of psoriasis. Adverse events (side effects) are monitored. In addition, published data for acitretin's side effects are also considered.
# [2] = Two placebo-controlled dose-ranging safety studies of oral tazarotene in nodulocystic acne
# Method: Two placebo-controlled dose-ranging studies are conducted to evaluate the safety of oral tazarotene in patients having nodulocystic acne. In the first study, patients receive orally administered tazarotene at daily doses of 0.4 mg to 2.8 mg in 96 (71+25) patients (12 weeks treatment plus 12 weeks post-treatment). In the second study, daily doses of 0.75 mg to 6 mg tazarotene are administered to 181 patients (24 weeks treatment plus 12 weeks post-treatment).
# severe nodulocystic acne = assay: Multicenter double-blind placebo-controlled study of oral tazarotene in severe nodulocystic acne; conditions: for patients withdrawing due to adverse events: treatment period
# Excerpt: A multicenter, double-blind, randomized, placebo-controlled parallel-group study is undertaken to determine the efficacy of orally administered tazarotene in treating severe nodulocystic acne.
# In addition, washout periods for other medications for this study are: 1 week for vitamin A supplements >5000 IU; 2 weeks for topical anti-acne medications (e.g., retinoids, azelaic acid, benzoyl peroxide); 2 weeks for topical or systemic antibiotic therapy that may alter the course of acne; and 6 months for systemic retinoids.
# Patients are randomized to receive placebo or oral tazarotene (0.75, 1.5, 3, or 6 mg), in a 1:1:1:1:1 ratio once daily for 24 weeks. After this, the patients are followed without treatment for an additional 12 weeks. Patients discontinuing from the treatment period due to adverse effects or lack of efficacy are eligible for entry into the post-treatment phase.
# In the study, overall acne severity is rated as: none (no inflammatory acne lesions); mild (few to several papules or pustules, no nodulocystic lesions); moderate (several to many papules or pustules, few to several nodulocystic lesions); and severe (numerous or extensive papules or pustules, many, for example, at least about 5 or at least about 10, nodulocystic lesions).
# Treatment success is defined as at least moderate (about 50%) improvement on the following 7-point global response scale: • 0=completely cleared • 1=almost cleared (about 90% improvement) • 2=marked response (about 75% improvement) • 3=moderate response (about 50% improvement) • 4=slight response (about 25% improvement) • 5=condition unchanged • 6=condition worsened
# In this study, facial nodulocystic lesion count includes lesions greater than 5 mm in size. Facial papular/pustular lesion count includes lesions less than or equal to 5 mm in size. Facial non-inflammatory lesion count includes open and closed comedones.
# Sebum output is assessed every 4 weeks at selected centers using the Sebutape® patches, sold by Cuderm Corporation. Urinalysis, chemistry, and hematology values are monitored. Bone formation and resorption assessments (serum bone alkaline phosphatase and serum amino terminal telopeptides, respectively) at selected centers are monitored.
# Bone mineral density of spine and proximal femur at selected centers is monitored. Ligament calcification or osteophyte formation (lateral X-ray of the cervical and thoracic spine, and ankle calcaneous) is monitored. Epiphyseal growth plate closure (internal oblique X-ray of the ankle in patients less than or equal to 21 years old) is monitored.
# [3] = Study 3, treated 3 months (N = 220)
# [4] = Study 3, treated 6 months (N = 92)
# [5] = combined data from Studies 1 and 2 (N = 348)
# [6] = 0.75 to 6 mg once daily, 24 weeks
smiles,measurement,setting,value
CCOC(=O)c1ccc(C#Cc2ccc3c(c2)C(C)(C)CCS3)nc1 [tazarotene],Alopecia,[1]; [3],1 (0.5) number (%) of patients
same,Arthralgia,[1]; [3],28 (12.7) number (%) of patients
same,Atrophy of skin,[1]; [3],0 (0.0) number (%) of patients
same,Back pain,[1]; [3],7 (3.2) number (%) of patients
same,Cheilitis,[1]; [3],149 (67.7) number (%) of patients
same,Dry Skin,[1]; [3],47 (21.4) number (%) of patients
same,Dry mouth/Oral dryness,[1]; [3],11 (5.0) number (%) of patients
same,Epistaxis,[1]; [3],1 (0.5) number (%) of patients
same,Erythematous rash/Erythema,[1]; [3],0 (0.0) number (%) of patients
same,Hyperesthesia,[1]; [3],0 (0.0) number (%) of patients
same,Nail Disorder,[1]; [3],1 (0.5) number (%) of patients
same,Paresthesia,[1]; [3],3 (1.4) number (%) of patients
same,Paronychia/Nail disorder,[1]; [3],1 (0.5) number (%) of patients
same,Pruritus,[1]; [3],11 (5.0) number (%) of patients
same,Rhinitis,[1]; [3],0 (0.0) number (%) of patients
same,Rigors/Chills,[1]; [3],1 (0.5) number (%) of patients
same,Skin peeling/Desquamation,[1]; [3],3 (1.4) number (%) of patients
same,Sticky skin/Skin disorder,[1]; [3],0 (0.0) number (%) of patients
same,Xerophthalmia/Eye disorder,[1]; [3],3 (1.4) number (%) of patients
same,Alopecia,[1]; [4],5 (5.4) number (%) of patients
same,Arthralgia,[1]; [4],30 (32.6) number (%) of patients
same,Atrophy of skin,[1]; [4],0 (0.0) number (%) of patients
same,Back pain,[1]; [4],10 (10.9) number (%) of patients
same,Cheilitis,[1]; [4],65 (70.7) number (%) of patients
same,Dry Skin,[1]; [4],24 (26.1) number (%) of patients
same,Dry mouth/Oral dryness,[1]; [4],2 (2.2) number (%) of patients
same,Epistaxis,[1]; [4],0 (0.0) number (%) of patients
same,Erythematous rash/Erythema,[1]; [4],0 (0.0) number (%) of patients
same,Hyperesthesia,[1]; [4],0 (0.0) number (%) of patients
same,Nail Disorder,[1]; [4],1 (1.1) number (%) of patients
same,Paresthesia,[1]; [4],1 (1.1) number (%) of patients
same,Paronychia/Nail disorder,[1]; [4],1 (1.1) number (%) of patients
same,Pruritus,[1]; [4],3 (3.3) number (%) of patients
same,Rhinitis,[1]; [4],0 (0.0) number (%) of patients
same,Rigors/Chills,[1]; [4],1 (1.1) number (%) of patients
same,Skin peeling/Desquamation,[1]; [4],1 (1.1) number (%) of patients
same,Sticky skin/Skin disorder,[1]; [4],0 (0.0) number (%) of patients
same,Xerophthalmia/Eye disorder,[1]; [4],1 (1.1) number (%) of patients
same,Alopecia,[1]; [5],1 (0.3) number (%) of patients
same,Arthralgia,[1]; [5],60 (17.2) number (%) of patients
same,Atrophy of skin,[1]; [5],0 (0.0) number (%) of patients
same,Back pain,[1]; [5],16 (4.6) number (%) of patients
same,Cheilitis,[1]; [5],228 (65.5) number (%) of patients
same,Dry Skin,[1]; [5],82 (23.6) number (%) of patients
same,Dry mouth/Oral dryness,[1]; [5],11 (3.2) number (%) of patients
same,Epistaxis,[1]; [5],2 (0.6) number (%) of patients
same,Erythematous rash/Erythema,[1]; [5],2 (0.6) number (%) of patients
same,Hyperesthesia,[1]; [5],0 (0.0) number (%) of patients
same,Nail Disorder,[1]; [5],2 (0.6) number (%) of patients
same,Paresthesia,[1]; [5],7 (2.0) number (%) of patients
same,Paronychia/Nail disorder,[1]; [5],2 (0.6) number (%) of patients
same,Pruritus,[1]; [5],21 (6.0) number (%) of patients
same,Rhinitis,[1]; [5],8 (2.3) number (%) of patients
same,Rigors/Chills,[1]; [5],9 (2.6) number (%) of patients
same,Skin peeling/Desquamation,[1]; [5],3 (0.9) number (%) of patients
same,Sticky skin/Skin disorder,[1]; [5],1 (0.3) number (%) of patients
same,Xerophthalmia/Eye disorder,[1]; [5],8 (2.3) number (%) of patients
same,"changes in urinalysis, chemistry, or hematology measures (liver function tests, triglycerides, total and HDL cholesterol)",[2]; 0.4 mg to 6 mg daily,no consistent dose-related clinically significant changes
same,"ligament calcification, osteophyte formation, serum bone alkaline phosphatase, amino terminal telopeptides, bone density",[2]; 0.4 mg to 6 mg daily,not associated with any clinically significant
same,incidence of arthralgia,"[2]; 2.8 mg, n=11, treatment period",9%
same,incidence of asthenia,"[2]; 2.8 mg, n=11, treatment period",0%
same,incidence of cheilitis,"[2]; 2.8 mg, n=11, treatment period",64%
same,incidence of dry skin,"[2]; 2.8 mg, n=11, treatment period",18%
same,incidence of headache,"[2]; 2.8 mg, n=11, treatment period",9%
same,incidence of joint disorder,"[2]; 2.8 mg, n=11, treatment period",27%
same,incidence of myalgia,"[2]; 2.8 mg, n=11, treatment period",0%
same,severe dry skin,[2]; 3 mg and 6 mg groups,No patient has severe dry skin
same,"Emotional lability, patients",[2]; 3 mg group,3%
same,mild cheilitis,[2]; 3 mg group,25 patients
same,mild dry skin,[2]; 3 mg group,11 patients
same,moderate cheilitis,[2]; 3 mg group,3 patients
same,moderate dry skin,[2]; 3 mg group,2 patient
same,severe cheilitis,[2]; 3 mg group,1 patient
same,"Depression, patients","[2]; 3 mg group (2 mild, 1 severe)",8%
same,incidence of arthralgia,"[2]; 3 mg, n=37, treatment period",8%
same,incidence of asthenia,"[2]; 3 mg, n=37, treatment period",19%
same,incidence of cheilitis,"[2]; 3 mg, n=37, treatment period",78%
same,incidence of dry skin,"[2]; 3 mg, n=37, treatment period",35%
same,incidence of headache,"[2]; 3 mg, n=37, treatment period",19%
same,incidence of joint disorder,"[2]; 3 mg, n=37, treatment period",14%
same,incidence of myalgia,"[2]; 3 mg, n=37, treatment period",16%
same,"Depression, patients",[2]; 6 mg group,none
same,"Emotional lability, patients",[2]; 6 mg group,14%
same,mild cheilitis,[2]; 6 mg group,27 patients
same,mild dry skin,[2]; 6 mg group,17 patients
same,moderate cheilitis,[2]; 6 mg group,6 patients
same,moderate dry skin,[2]; 6 mg group,1 patient
same,severe cheilitis,[2]; 6 mg group,1 patient
same,incidence of arthralgia,"[2]; 6 mg, n=36, treatment period",28%
same,incidence of asthenia,"[2]; 6 mg, n=36, treatment period",19%
same,incidence of cheilitis,"[2]; 6 mg, n=36, treatment period",94%
same,incidence of dry skin,"[2]; 6 mg, n=36, treatment period",50%
same,incidence of headache,"[2]; 6 mg, n=36, treatment period",36%
same,incidence of joint disorder,"[2]; 6 mg, n=36, treatment period",19%
same,incidence of myalgia,"[2]; 6 mg, n=36, treatment period",25%
same,patients withdrawing from either study due to adverse events,"[2]; both studies, 7/277 patients including placebo",2.5%
same,patients withdrawing due to adverse events,severe nodulocystic acne; 0.75 mg group (2/35),6%
same,patients withdrawing due to adverse events,severe nodulocystic acne; 1.5 mg group (0/37),0%
same,incidence of treatment success vs placebo,"severe nodulocystic acne; 3 mg and 6 mg, week 24 and post-treatment phase, p≦0.05",significantly higher incidence of treatment success
same,patients withdrawing due to adverse events,severe nodulocystic acne; 3 mg group (2/37),5%
same,patients withdrawing due to adverse events,severe nodulocystic acne; 6 mg group (1/36),3%
same,reduction of overall acne severity vs placebo,"severe nodulocystic acne; 6 mg, week 16 until end of post-treatment phase, p≦0.01",significantly more than placebo
same,"bone formation and resorption (serum bone alkaline phosphatase, amino terminal telopeptides)",severe nodulocystic acne; [6],do not appear to be altered
same,"changes in urinalysis, chemistry, or hematology measures (liver function, triglycerides, total and HDL cholesterol)",severe nodulocystic acne; [6],None of the treatment groups show any consistent clinically significant changes
same,"ligament calcification, osteophyte formation, or changes in bone density",severe nodulocystic acne; [6],None of the treatment groups show any clinically significant
same,percentage of patients with at least a 90% reduction in facial nodulocystic lesion count vs placebo,"severe nodulocystic acne; 1.5, 3, and 6 mg groups, week 24",significantly greater
same,sebum secretion (Sebutape method),"severe nodulocystic acne; oral, 0.75 to 6 mg, vs placebo",does not substantially reduce sebum secretion relative to placebo
same,patients achieving treatment success (≧50% global improvement),"severe nodulocystic acne; three highest doses, by week 12",more than 70%
same,patients achieving treatment success (≧50% global improvement),"severe nodulocystic acne; two highest doses, by week 24",more than 86%
